Consider 1 compound from US9260417B2, “Therapeutic methods and compositions involving allosteric kinase inhibition” (AMITECH THERAPEUTIC SOLUTIONS, INC., priority 2010, dated 2016).

In data set [1] the target is PFTK1 (Homo sapiens (Human), UniProt O94921). As to the kind of experiment: KINOMEscan competitive binding assay. Particulars: 10 uM.
Data set [2] addresses PIM1 (Homo sapiens (Human), UniProt P11309). As to the kind of experiment: KINOMEscan competitive binding assay. Particulars: 10 uM.
Data set [3] concerns bFGF induced angiogenesis. Kind of data set: Mouse Matrigel model of angiogenesis. Particulars: 50 mg/kg, ip, bid. The format is in vivo, mice. The protocol: On day 5 after implantation of the Matrigel, the mice were administered FITC-lectin to label blood vessels. The plugs were removed and visualized by confocal microscopy followed by homogenization and quantification of total FITC. Error bars represent ±SEM. […] Thin sections (5 μm) of the Matrigel plugs were immunostained for vessels with an EC mix (anti-Flk, anti-CD31, anti-VE-Cadherin, and anti-endoglin). […] (FIG. 9C) 6 inhibits phosphorylation of PDGFRβY751 in stromal cells. Thin sections (5 μm) of the Matrigel plugs were immunostained for pericytes and fibroblast with α-smooth muscle actin and for phospho-PDGFRβ Y751 levels. ECs were immunostained with anti-CD31. […] Thin sections (5 μm) of the Matrigel plugs were immunostained for vessels with an EC mix (described as in 9B). TOPRO-3 was used as a nuclear counterstain and TUNEL staining was used to detect apoptotic nuclei. Images were taken using confocal laser scanning microscopy. […]
Female Nu/Nu mice were implanted with growth-factor depleted Matrigel (BD Biosciences, San Jose, Calif.) in the flank containing either PBS or 200 ng of bFGF (Peprotech). […] Five days after matrigel implantation, mice were tail-vein injected with FITC-lectin and plugs were harvested and imaged by confocal microscopy and quantified after homogenization in ice-cold PBS using a fluorescent microplate reader (Tecan Systems, Inc., San Jose, Calif.). […]

Data set [4] has as its system XPA-1-RFP pancreatic tumor xenografts. As to the kind of experiment: Orthotopic pancreatic carcinoma model. The data set is classed as in vivo, mice. Particulars: 50 mg/kg. Here is the method:
Drug treatments were started 3 days after surgical orthotopic implantation (SOI) of XPA1-RFP tumors and tumor progression was monitored every 3 days by whole animal imaging. Scale bar=10 mm. […] Tumor surface area was calculated by adding the total pixels of both the ventral and lateral images of the tumor. *p=0.034. (FIG. 5C) Average body weight of the mice measured each day of whole animal imaging described in FIGS. 5A and 5B above. (FIG. 5D) Total weights of resected primary tumors on day 15 post (SOI), *p=0.022. (FIG. 5E) Representative fluorescent images of endothelial GFP expression (GFP expression driven by the Nestin promoter) within the XPA1-RFP tumors after resection. Images taken 15 days post SOI. Scale bar=200 μm. (FIG. 5F) Plot of tumor vessel density from images acquired as in FIG. 5E. Blood vessels imaged as in 5E were converted to length (mm) and normalized to the tumor volume (mm^3), *p=0.01.
Orthotopic human pancreatic cancer xenografts from the pancreatic cancer cell line XPA1-RFP were established in nude mice by surgical orthotopic implantation (SOI). Briefly, subcutaneous XPA1-RFP tumors in the exponential growth phase were harvested and sectioned into 1 mm^3 pieces in serum-free RPMI medium. Mice were anesthetized using 50% ketamine, 38% xylazine and 12% agepromazine maleate injected intramuscularly at a dose of 2 μl/g, and their abdominal wall was sterilized with alcohol. A small incision was then made in the right pararectal line through the skin and peritoneum. The body of the pancreas was exposed and a 1 mm^3 tumor fragment was sutured to the pancreas using a single 8-0 nylon surgical suture (Davis-Geck, Inc. Manati, Puerto Rico). The pancreas was then returned to the abdomen and the peritoneum and skin were closed in two layers using 6-0 vicryl surgical suture.
At day 3 after SOL the animals began treatment with twice-daily IP injections of either compound, 6 (50 mg/kg dose in 200 μl total volume), or vehicle control at 12 hour intervals. […] At day 12 post-SOI the animals were sacrificed and their tumors were excised, weighed, and measured in 3 dimensions in order to calculate tumor volume. The tumor volume was calculated with the formula: volume=height×width×length×0.52. […] The total vessel length for each tumor was measured using Image-J software and converted to vessel density by dividing total tumor vessel length by tumor volume. […]
RFP expressing XPA-1 pancreatic tumor xenografts were implanted into the pancreas of Nestin GFP-mice enabling detection of both developing blood vessels (GFP) and primary tumor (RFP). […] Tumor growth was monitored non-invasively by whole body imaging using the Olympus OV100 Small Animal Imaging System to detect the RFP signal from the tumor implant within the pancreas.

The target in data set [5] is BRAF (Homo sapiens (Human), UniProt P15056). Kind of data set: KINOMEscan competitive binding assay. Particulars: 10 uM.
The target in data set [6] is ABL1 (Homo sapiens (Human), UniProt P00519). Kind of data set: KINOMEscan competitive binding assay. Particulars: 10 uM.
For data set [7], the target named is CSNK1E (Homo sapiens (Human), UniProt P49674). Kind of data set: KINOMEscan competitive binding assay. Particulars: 10 uM.

For `CSc1nc(N)cc(Oc2ccc(-c3nnc(Nc4cccc(C(F)(F)F)c4)[nH]3)cc2)n1` [Compound 6], the “% Control” value came to 71% in data set [1]; 96% in data set [2]; 91% in data set [5]; 100% in data set [6]; 47% in data set [7]. Also, the “p-ERK staining in endothelial cells of Matrigel plugs” value in data set [3] is on record as “suppression in the p-ERK staining”. Moreover, in data set [3], the “p-PDGFRβY751 signal in stromal compartment of Matrigel plugs” value was “complete suppression”. Also, the body weight entry in data set [4] (bid) is listed as “no weight loss”. In data set [4] (bid (vehicle 2.5)), the “mean vessel length/tumor volume” value was found to be 0.2 mm/mm^3. Also, in data set [4] (bid, from day 3, 12 days post SOI), the tumor growth result is listed as “completely suppressed”. In data set [4] (resected on day 15, bid (vehicle 74.1 mg)), this compound showed an average tumor weight of 26.7 mg.
